The source of these data is US9265747B2, “Platinum (IV) complexes for use in dual mode pharmaceutical therapy” (Massachusetts Institute of Technology, priority 2008, dated 2016).

Series [1] has as its system MRC-5, normal lung fibroblast. Kind of series: MTT assay, MRC-5 normal cells. The format is cell-based, human. Particulars: 72 hours. Here is the method: (§1) MTT Assay. Cytotoxic behavior of compound 1, DCA and cis-DDP were evaluated using the MTT assay. Solutions of the platinum complexes were freshly prepared in sterile PBS before use and quantitated by atomic absorption spectroscopy. Cells were seeded on a 96 well plate (1000 cells per well for NTera-2, U2OS, HeLa; 1400 per well for normal fibriblast; 500 per well for 7B, 10B, 175F and 150×2) in 100 μL DMEM media and incubated for 24 hours. The cells were then treated with compound 1, DCA or cis-DDP, separately at varying concentrations and incubated for 72 hours at 37° C. The cells were then treated with 20 μL of 3-(4,5-dimethylthiazol-2-yl)-2,5-diphenyltetrazolium bromide (MTT) (5 mg/mL in PBS) and incubated for 5 h. The medium was removed, the cells were lysed by adding 100 μl, of DMSO, and the absorbance of the purple formazan was recorded at 550 nm using a BioTek Synergy HT multi-detection microplate plate reader. Each well was performed in triplicate in three independent experiments for each cell line.

Series [2] has as its system A2780/CP70, cisplatin-resistant human ovarian carcinoma. Kind of series: MTT assay, A2780/CP70 cells. It counts as cell-based. Particulars: A2780/CP70 cisplatin resistant cells, 72 h. Here is the method:
A more negative membrane potential might promote translocation of the active, cationic form of cisplatin from the cytoplasm to mitochondria, thus diminishing platination of nuclear DNA. […] Thus, a pair of cisplatin sensitive A2780 and resistant A2780/CP70 ovarian cancer cells were studied (Table 1 and FIG. 10). […] (▴) with (A) cisplatin sensitive A2780 cells and (B) cisplatin resistant A2780/CP70 cells, after 72 h as determined by the MTT assay. The controls were cisplatin and c,c,t-[Pt(NH3)2Cl2(O2CCH3)2]. […] Results for the A2780/CP70 cells indicate that DCA plays a role, in this embodiment, in making cisplatin-resistant cells susceptible towards mitaplatin treatment.
as §1

Series [3] is described as follows: Cyclic voltammetry, Pt(IV)/Pt(II) couple. It counts as physicochemical. From the text:
Materials and Measurements. The complexes cis-[Pt(NH3)2Cl2], and c, c, t-[Pt(NH3)2Cl2(OH)2] were synthesized as previously described. Distilled water was purified by passage through a Millipore Milli-Q Biocel water purification system (18.2 MΩ) with a 0.22 μm filter. For the detection of cisplatin 1,2-d(GpG) intrastrand adduct, a monoclonal adduct specific antibody R-C18 was used which was a gift from Anti-cytochrome c (Ab-1) sheep polyclonal antibody was procured from Calbiochem. For AIF detection, rabbit polyclonal IgG antibody was used from Santa Cruz Biotechnology, Inc. Alexa Fluor® 488 labeled secondary antibody donkey anti-(sheep IgG) was obtained from Invitrogen for cytochrome c detection. For AIF detection, Alexa Fluor® 546 labeled secondary antibody goat anti-(rabbit IgG) was purchased from Invitrogen. […] JC-1 (5,5′, 6,6′-tetrachloro-1,1′,3,3′ tetraethylbenzimidazolylcarbocyanine iodide) was obtained from Cayman Chemicals. ^1H NMR and ^195Pt NMR spectra were recorded on a Bruker AVANCE-400 NMR spectrometer with a Spectro Spin superconducting magnet in the Massachusetts Institute of Technology Department of Chemistry Instrumentation Facility (MIT DCIF). […] Fluorescence imaging studies were performed with an Axiovert 200M inverted epifluorescence microscope (Zeiss, Thornwood, N.Y.) equipped with an EM-CCD digital camera C9100 (Hamamatsu, Japan). […]

In another series the test system is NTera-2 cells. Put plainly: Immunofluorescence detection of cytochrome c and AIF. It counts as cell-based, human. Conditions: treated NTera-2 cells. The procedure:
Detection of cytochrome c and AIF. Normal fibroblast or Ntera-2 cells were seeded on microscope coverslips (1 cm) at a confluence of 1600 cells per slip and incubated overnight at 37° C. in DMEM. The medium was changed and compound 1 was added to a final 500 μM. The cells were incubated for 24 or 48 h at 37° C. Medium was then removed and the cells were incubated with fixing solution for 1 h at room temperature followed by three washes with phosphate buffered saline (PBS, pH 7.4). Cells were then fixed with 4% paraformaldehyde in 0.1 M phosphate buffer (pH 7.4) at room temperature for 1 h, washed twice with PBS. Cells were then permeabilize with 0.1% Triton-X100 in PBS for 30 min, followed by six washes with PBS. Cells were then rinsed with blocking buffer (PBS, 0.1% goat serum, 0.075% glycin). Cells were then incubated for 1 h at 37° C. with the anti-cytochrome c (anti-cytochrome c (Ab-1) Sheep pAb, Calbiochem) antibody or AIF (AIF (H-300), Santa Cruz Biotechnology Inc.) antibody both diluted 1:50 in blocking buffer, washed twice with blocking buffer and incubated at 37° C. with Alexa Fluor 488 donkey anti sheep IgG (Invitrogen) antibody for cytochrome c release and Alexa Fluor 546 goat anti-rabbit IgG (Invitrogen) antibody for AIF (dilution 1:50 in blocking buffer) for 1 h. […]

For `[NH2][Pt]([NH2])([Cl])([Cl])([O]C(=O)C(Cl)Cl)[O]C(=O)C(Cl)Cl` [Mitaplatin, c,c,t-[Pt(NH3)2Cl2(O2CCHCl2)2]], the IC50 came to 18.3 µM in series [1] and 3.34 µM in series [2]. The “reduction potential, Pt(IV)/Pt(II) couple” value was −0.152 V vs Ag/AgCl in series [3] (pH 6.0, 25° C.) and ~−0.173 V vs Ag/AgCl in series [3] (pH 7.4, irreversible cyclic voltammetric response, 25° C.). In addition, the “apoptosis inducing factor AIF location” value in the series with NTera-2 cells is listed as “located in the nucleus”. In the series on NTera-2 cells, the cytochrome c distribution result is “diffusely distributed in the cytoplasm”.
